System: IL-12 induced STAT4 phosphorlyation mediated by TYK2/JAK2
Experiment: IL-12 Induced pSTAT4 in Human PBMC
Format: cell-based
Conditions: 1.7 ng/mL IL-12 for 30 minutes
Procedure, shortened: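 pSTAT4 and total STAT4 quantified by MSD in lysates of cryopreserved human PBMC after 30-minute stimulation with 1.7 ng/mL IL-12 (final). Compound was added 1 hr beforehand at 37° C, 0.1% DMSO final.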

IC50 (0.5 h) [µM]	IC50 [µM]	SMILES
0.1 to 0.5		CNc1cc(-c2cnc3n(CC(C)(C)O)cccc2-3)nc2c(C(=O)NC3CC[C@@H]3OC)cnn12 (stereo in doubt) [Compound I-979, 5-(7-(2-hydroxy-2-methylpropyl)-7H-pyrrolo[2,3-b]pyridin-3-yl)-N-(2-methoxycyclobutyl)-7-(methylamino)pyrazolo[1,5-a]pyrimidine-3-carboxamide]
	< 0.1	CNc1cc(-c2cn([C@H]3COC[C@H]3F)c3ncccc23)nc2c(C(=O)NC3CC[C@H]3O)cnn12 (stereo partly shown) [Compound I-573]
	< 0.1	CNc1cc(Nc2cccn([C@H]3C[C@H](F)C3)c2=O)nc2c(C(=O)N[C@@H]3CC[C@H]3OC)cnn12 [Compound I-57, 5-((1-((1r,3R)-3-Fluorocyclobutyl)-2-oxo-1,2-dihydropyridin-3-yl)amino)-N-((1R,2R)-2-methoxycyclobutyl)-7-(methylamino)pyrazolo[1,5-a]pyrimidine-3-carboxamide]
	< 0.1	CO[C@H]1CC[C@@H]1NC(=O)c1cnn2c(N)cc(-c3cnc4n([C@H]5COC[C@@H]5OC)cccc3-4)nc12 [Compound I-1006]
	< 0.1	CNc1cc(-c2cn([C@H]3C[C@@H](O)C3)c3ncccc23)nc2c(C(=O)N[C@H]3CC[C@@H]3F)cnn12 [Compound I-511]
	< 0.1	CNc1cc(Nc2cccn([C@@H]3CCC[C@@H]3O)c2=O)nc2c(C(=O)N[C@@H]3CCC3(F)F)cnn12 [Compound I-305]
	0.1 to 0.5	CNc1cc(-c2cn([C@H]3CC3(F)F)c3ncccc23)nc2c(C(=O)NC3COC[C@H]3O)cnn12 (stereo partly shown) [Compound I-709]
	< 0.1	CNc1cc(-c2cn([C@H]3CC(=O)N(C)C3)c3ncccc23)nc2c(C(=O)N[C@H]3CC[C@@H]3OC)cnn12 [Compound I-1024]
	< 0.1	CNc1cc(-c2cn([C@H]3C[C@@H](O)C3)c3ncccc23)nc2c(C(=O)NC3CC[C@@H]3F)cnn12 (stereo partly shown) [Compound I-510]
	< 0.1	CNc1cc(-c2cn([C@@H]3COC[C@H]3O)c3ncccc23)nc2c(C(=O)N[C@H]3CCC3(F)F)cnn12 [Compound I-693]
	< 0.1	CNc1cc(Nc2cccn([C@@H]3C[C@H]3F)c2=O)nc2c(C(=O)N[C@@H]3C[C@H]3OC)cnn12 [Compound I-135]
	< 0.1	CNc1ccc(-c2cc(NC)n3ncc(C(=O)NC4CC[C@H]4O)c3n2)n2ccnc12 (stereo partly shown) [Compound I-484]
	< 0.1	CNc1cc(-c2cn([C@H]3COC[C@@H]3OC)c3ccccc23)nc2c(C(=O)NC3CC[C@@H]3OC)cnn12 (stereo partly shown) [Compound I-741]
	0.5 to 1	CNc1cc(-c2cnc3n([C@@H]4COC[C@H]4OC)cccc2-3)nc2c(C(=O)NC3CC[C@H]3O)cnn12 (stereo partly shown) [Compound I-865]
	< 0.1	CNc1cc(-c2cn(CCOC)c3ncccc23)nc2c(C(=O)NC3CC[C@@H]3OC)cnn12 (stereo partly shown) [Compound I-795]
	< 0.1	CNc1cc(-c2cn([C@H]3CCOC[C@@H]3F)c3ncccc23)nc2c(C(=O)NC3CC[C@@H]3OC)cnn12 (stereo partly shown) [Compound I-651]
< 0.1		CNc1cc(Nc2cccn([C@@H]3CCC[C@H](C#N)C3)c2=O)nc2c(C(=O)NC3CC[C@@H]3OC)cnn12 (stereo partly drawn) [Compound I-115, 5-((1-((1R,3S)-3-Cyanocyclohexyl)-2-oxo-1,2-dihydropyridin-3-yl)amino)-N-((trans-1,2)-2-methoxycyclobutyl)-7-(methylamino)pyrazolo[1,5-a]pyrimidine-3-carboxamide]
	< 0.1	CNc1cc(-c2cn(C(C)C)c3nnccc23)nc2c(C(=O)NC3CC[C@@H]3OC)cnn12 (stereo partly shown) [Compound I-993]
	< 0.1	CNc1cc(Nc2cccn([C@@H]3CCCC[C@@H]3O)c2=O)nc2c(C(=O)NC3CC[C@@H]3F)cnn12 (stereo partly shown) [Compound I-209]
	< 0.1	CNc1cc(-c2cnc3n([C@@H]4CN(C)C[C@H]4OC)cccc2-3)nc2c(C(=O)NC3CC[C@@H]3OC)cnn12 (stereo partly shown) [Compound I-943]

IC50 (0.5 h) [µM]	IC50 [µM]	SMILES
	0.1 to 0.5	CNc1cc(-c2cn([C@H]3CC(=O)N(C)C3)c3ncccc23)nc2c(C(=O)NC3CC[C@@H]3OC)cnn12 (stereo partly shown) [Compound I-1017]
	0.1 to 0.5	CNc1cc(-c2cnc3n([C@H]4COC[C@@H]4O)cccc2-3)nc2c(C(=O)NC3CC[C@@H]3OC)cnn12 (stereo partly shown) [Compound I-877]
	< 0.1	CNc1cc(Nc2cccn([C@H]3CCC[C@H]3O)c2=O)nc2c(C(=O)NC3CC[C@]3(C)OC)cnn12 (stereo partly shown) [Compound I-390]
	< 0.1	CNc1cc(Nc2cccn([C@H]3CCCOC3)c2=O)nc2c(C(=O)NC3CCC3(F)F)cnn12 (stereo partly shown) [Compound I-312]
	< 0.1	CNc1cc(-c2cnc3n([C@@H]4COC[C@H]4OC)cccc2-3)nc2c(C(=O)N[C@@H]3CC[C@H]3OC)cnn12 [Compound I-884]
	< 0.1	CNc1cc(Nc2cccn([C@@H]3CCCC[C@@H]3O)c2=O)nc2c(C(=O)N[C@@H]3CC[C@H]3F)cnn12 [Compound I-211]
	< 0.1	O=C(N[C@H]1CCC1(F)F)c1cnn2c3c(c(-c4cn([C@H]5C[C@H](O)C5)c5ncccc45)nc12)OCCN3 [Compound I-776]
	< 0.1	CNc1cc(-c2cnc3n([C@@H]4COC[C@H]4O)cccc2-3)nc2c(C(=O)NC3CCC3(F)F)cnn12 (stereo partly shown) [Compound I-901]
	< 0.1	CNc1cc(-c2cnc3n([C@@H]4COC[C@H]4O)cccc2-3)nc2c(C(=O)N[C@@H]3CC[C@H]3OC)cnn12 [Compound I-876]
	< 0.1	CNc1cc(-c2cn([C@H]3C[C@@H](O)C3)c3ncccc23)nc2c(C(=O)N[C@H]3CC[C@@H]3OC)cnn12 [Compound I-606]
	< 0.1	CNc1cc(Nc2cccn([C@H]3CCC[C@H](OC)C3)c2=O)nc2c(C(=O)NC3CC[C@@H]3F)cnn12 (stereo partly shown) [Compound I-230]
	< 0.1	CNc1cc(Nc2cccn([C@H]3C[C@@H]3F)c2=O)nc2c(C(=O)NC3CCC3(F)F)cnn12 (stereo partly shown) [Compound I-277]
	0.1 to 0.5	CNc1cc(-c2cnc3n([C@@H]4COC[C@H]4OC)cccc2-3)nc2c(C(=O)N[C@@H]3CC[C@@H]3O)cnn12 [Compound I-867]
	< 0.1	CNc1cc(-c2cn([C@H]3CN(C)C[C@@H]3F)c3ncccc23)nc2c(C(=O)N[C@H]3CC[C@@H]3OC)cnn12 [Compound I-640]
	< 0.1	CNc1cc(Nc2cccn([C@@H]3CCCOC3)c2=O)nc2c(C(=O)N[C@@H]3CC[C@H]3F)cnn12 [Compound I-196]
	< 0.1	CNc1cc(Nc2cccn([C@@H]3CC[C@@H]3O)c2=O)nc2c(C(=O)N[C@H]3CCC3(F)F)cnn12 [Compound I-290]
	< 0.1	CNc1cc(Nc2cccn([C@@H]3C[C@H]3F)c2=O)nc2c(C(=O)N[C@@H]3CCC3(F)F)cnn12 [Compound I-276]
	< 0.1	CNc1cc(Nc2cccn([C@@H]3C[C@H]3OC)c2=O)nc2c(C(=O)N[C@H]3CC[C@@H]3F)cnn12 [Compound I-155]
	< 0.1	CNc1cc(-c2cn([C@@H]3CCN(C)C3)c3ncccc23)nc2c(C(=O)NC3CCC3(F)F)cnn12 (stereo partly shown) [Compound I-686]
	< 0.1	CNc1cc(-c2cn([C@@H]3CCOC[C@@H]3OC)c3ncccc23)nc2c(C(=O)NC3CCC3(F)F)cnn12 (stereo partly shown) [Compound I-702]

IC50 (0.5 h) [µM]	IC50 [µM]	SMILES
	< 0.1	CNc1cc(Nc2cccn([C@@H]3CCOC[C@@H]3OC)c2=O)nc2c(C(=O)N[C@@H]3CC[C@@H]3F)cnn12 [Compound I-235]
	< 0.1	CNc1cc(-c2cn(C3COC3)c3ncccc23)nc2c(C(=O)N[C@H]3CC[C@H]3O)cnn12 [Compound I-555]
	< 0.1	CNc1cc(-c2cn([C@H]3CCOC3)c3ncccc23)nc2c(C(=O)NC3CC[C@@H]3OC)cnn12 (stereo partly shown) [Compound I-612]
	< 0.1	CNc1cc(-c2cn([C@@H]3CN(C)C[C@H]3F)c3ncccc23)nc2c(C(=O)NC3CC[C@@H]3OC)cnn12 (stereo partly shown) [Compound I-642]
	< 0.1	CNc1cc(Nc2cccn(C3CCOCC3)c2=O)nc2c(C(=O)NC3CC[C@@]3(C)OC)cnn12 (stereo partly shown) [Compound I-405]
	< 0.1	CNc1cc(-c2cn(C3CCCC3)c3ncccc23)nc2c(C(=O)NC3CCC3(F)F)cnn12 (stereo not shown) [Compound I-680]
	< 0.1	CNc1cc(Nc2cccn([C@H]3C[C@@H](OC)C3)c2=O)nc2c(C(=O)NC3CC[C@@H]3OC)cnn12 (stereo partly shown) [Compound I-780]
	< 0.1	CNc1cc(-c2cn([C@H]3CCOC[C@H]3OC)c3ncccc23)nc2c(C(=O)N[C@H]3CC[C@@H]3F)cnn12 [Compound I-796]
	< 0.1	CNc1cc(-c2cn([C@H]3CCOC[C@H]3OC)c3ncccc23)nc2c(C(=O)N[C@@H]3CCC3(F)F)cnn12 [Compound I-811]
	< 0.1	CNc1cc(Nc2cccn([C@H]3C[C@H](OC)C3)c2=O)nc2c(C(=O)NC3CC[C@@H]3F)cnn12 (mixture of isomers) [Compound I-176]
	< 0.1	CNc1cc(-c2cn([C@H]3CCOC[C@H]3OC)c3ncccc23)nc2c(C(=O)N[C@H]3CC[C@@H]3OC)cnn12 [Compound I-666]
	< 0.1	CNc1cc(-c2cn([C@@H]3CC3(F)F)c3ncccc23)nc2c(C(=O)N[C@H]3CC[C@H]3O)cnn12 [Compound I-549]
0.1 to 0.5		CNc1cc(-c2cnc3n(CCCN4CCOCC4)cccc2-3)nc2c(C(=O)NC3CC[C@@H]3OC)cnn12 (stereo in doubt) [Compound I-981, N-(2-methoxycyclobutyl)-7-(methylamino)-5-(7-(3-morpholinopropyl)-7H-pyrrolo[2,3-b]pyridin-3-yl)pyrazolo[1,5-a]pyrimidine-3-carboxamide]
	< 0.1	CNc1cc(-c2cn([C@@H]3COC[C@H]3OC)c3ccccc23)nc2c(C(=O)N[C@H]3CC[C@H]3O)cnn12 [Compound I-787]
	< 0.1	CNc1cc(Nc2cccn([C@@H]3C[C@H]3F)c2=O)nc2c(C(=O)NC3CC[C@@H]3F)cnn12 (stereo partly shown) [Compound I-151]
	< 0.1	CNc1cc(-c2cnc3n([C@H]4CN(C)C[C@@H]4OC)cccc2-3)nc2c(C(=O)N[C@H]3CC[C@@H]3OC)cnn12 [Compound I-947]
	< 0.1	CNc1cc(-c2cnc3n([C@H]4COC[C@@H]4O)cccc2-3)nc2c(C(=O)N[C@@H]3CC[C@H]3OC)cnn12 [Compound I-878]
	< 0.1	CNc1cc(Nc2cccn([C@H]3C[C@@H]3F)c2=O)nc2c(C(=O)N[C@@H]3CCC3(F)F)cnn12 [Compound I-279]
